Test results taken from US20080009546A1 (Chevron U.S.A. Inc., priority 2005, published 2008).

Test: Dissolving compounds to make 10 mM stock solution
Assay type: physicochemical
Conditions: deionized water or assay friendly solvents, hot water
Method: Following assay establishment, the test compounds were tested for binding affinities. The concentrations selected for the experiments were chosen according to what was found for memantine in our assay. The first task was to dissolve the compounds and make up the 10 mM stock solution for further experiments. Those compounds that were made into salt format were easy to dissolve in deionized water, but the other compounds were difficult to bring into solution. Several “assay friendly” solvents have been tried, such as molecusol, acetic acid and propylene glycol followed by putting the vial into hot water.

O=C(O)C12CC3CC4C5CC(CC41)CC2C5C3 [MDT-17]
dissolution for 10 mM stock solution: did not go into solution, or came out with time
